The values that follow come from patent publication US9358305B2, “Targeted carriers for drug delivery across the gastrointestinal epithelium” (University of Maryland, College Park, priority 2009, dated 2016).

Ends that are not written are not given here.

Series [1] concerns the target T1, mouse ICAM-1/hFc (Mus musculus, UniProt P13597).
T1 construct: the two most membrane-distal Ig domains—1 and 2—of mouse ICAM-1 fused to human Fc or hFc
Briefly: ELISA of 7-mer peptide phage clones on immobilized mouse ICAM-1/hFc vs hFc. Format: binding. The conditions noted are these: phage clone. An excerpt:
(§1) (A) ELISA measurement of the binding of 7-mer peptide expressing phage library to immobilized recombinant ICAM-1 (consisting of the two most membrane-distal Ig domains—1 and 2—of mouse ICAM-1 fused to human Fc or hFc), versus their binding to control hFc. (B) Relative specificity and (C) relative affinity of ICAM-1-targeting peptide phages, determined by ELISA from the experiment in (A). (D) Relative binding of phages expressing 7-mer peptides to native ICAM-1 expressed on the surface of HV5 mouse endothelial cells, either control or activated with TNFalpha to mimic a disease phenotype. Binding was determined by microscopy using a fluorescently-labeled antibody to the phage capsid. The line in the graph indicates the level of binding of A1 phage to 293 cells, which are voided of ICAM-1-expression. […] (G) Binding of FITC-labeled anti-ICAM polystyrene nanocarriers to human endothelial cells was evaluated by fluorescence microscopy after incubation with cells in the absence (100% level) or presence of anti-ICAM antibody, ICAM-1-targeting synthetic peptides, or peptides with their scramble sequence (e.g., A1sc).

Series [2] has as its system mouse ICAM-1/hFc. The series is described as above. It is filed as binding. As to conditions: phage clone.
From the text: as §1

The subject of the next series is human ICAM-1. The experiment in a line: Binding of clone A1 phages to human ICAM-1/hFc and HUVEC.
Series [3] concerns the target T2, ICAM-1 on human endothelial cells (Homo sapiens, UniProt P05362).
T2 construct: endogenous in cells
The experiment in a line: Competition of binding of anti-ICAM nanocarriers to human endothelial cells by synthetic peptides. It is filed as cell-based. The text has this: (A) ELISA measurement of the binding of 7-mer peptide expressing phage library to immobilized recombinant ICAM-1 (consisting of the two most membrane-distal Ig domains—1 and 2—of mouse ICAM-1 fused to human Fc or hFc), versus their binding to control hFc. (B) Relative specificity and (C) relative affinity of ICAM-1-targeting peptide phages, determined by ELISA from the experiment in (A). (D) Relative binding of phages expressing 7-mer peptides to native ICAM-1 expressed on the surface of HV5 mouse endothelial cells, either control or activated with TNFalpha to mimic a disease phenotype. Binding was determined by microscopy using a fluorescently-labeled antibody to the phage capsid. The line in the graph indicates the level of binding of A1 phage to 293 cells, which are voided of ICAM-1-expression. (E, F) Endocytosis (1 h, 37° C.) of phages expressing 7-mer peptides by control mouse endothelial cells (E) or mouse endothelial cells incubated in the presence of 3 mM amiloride (F) was estimated by microscopy after staining surface-located phages with a Texas red-labeled antibody to the viral capsid, following by cell permeabilization and staining of all (surface and internalized) phages using a FITC-labeled antibody to the viral capsid. (G) Binding of FITC-labeled anti-ICAM polystyrene nanocarriers to human endothelial cells was evaluated by fluorescence microscopy after incubation with cells in the absence (100% level) or presence of anti-ICAM antibody, ICAM-1-targeting synthetic peptides, or peptides with their scramble sequence (e.g., A1sc).

The test system of a further series is ICAM-1 on HUVEC. Briefly: Leukocyte transmigration across TNF-activated HUVEC monolayer in transwell. Format: cell-based, human. As to conditions: compared to albumin, scrambled peptide and LB2 controls. As for the experimental part: Human endothelial cells (human umbilical vein endothelial cells (HUVECs)) were grown until formation of a continuous confluent monolayer in a transwell filter located between upper and lower chambers. The cells were then treated with tumor necrosis factor alpha to mimic inflammatory activation of endothelial cells and SDF1a was added to the lower chamber to generate a gradient to attract white blood cells, as during inflammation. Lymphocytes isolated from human peripheral blood were activated with interleukin 2 and added to the upper chamber above endothelial cells in the absence (control) or presence of ICAM-1-targeting peptides A1, B7, B8, B9, B10, or D6. Albumin or a peptide of scrambled sequence were used as negative controls which should not block inflammatory transmigration of leukocytes across endothelial cells. The anti-ICAM antibody LB2, which is known to block leukocyte adhesion to ICAM-1, was used as a positive control which should block such transmigration.
Leukocytes which transmigrated to the lower chamber below endothelial cells were counted to assess their transmigration. FIG. 9 provides a graph of the resulting leukocyte transmigration as a percentage of the control. The peptides annotated with an asterisk in FIG. 9 indicate that the peptide was effective in statistically significant blockage of leukocyte transmigration across endothelial cells.

Another series addresses T3, ICAM-1 (Mus musculus, UniProt P13597).
T3 construct: from tissue
Briefly: Lung uptake (30 min) of radiolabeled ASM vs anti-ICAM carriers injected iv in mice. Format: in vivo. As to conditions: 30 min after iv injection. As for the experimental part: (A) Lung uptake (30 min) of ^125I-labeled anti-transferrin receptor (targeted to the clathrin route), anti-GM1 (anti-ganglioside GM1, targeted to caveoli), or anti-ICAM, injected intravenously in mice as free antibodies or absorbed on the surface of 100 nm polystyrene particles (prototype carrier final size=180 nm). Particles had ^125I-labeled IgG as a tracer. Dashed line=control unspecific IgG carriers. (B) Lung uptake (30 min) of radiolabeled acid sphingomyelinase, a recombinant enzyme which binds to mannose 6 phosphate (M6P) receptor, vs anti-ICAM polystyrene carriers in control C57Bl/6 mice vs diseased ASMKO mice. Data is normalized per gram due to larger lung size in ASMKO mice. […] […]. […] (E) FITC-labeled anti-ICAM carriers of diverse geometry (anti-ICAM polystyrene spheres from 0.1 to 5 μm or 0.1×1×3 μm elliptical disks, and polymorphous anti-ICAM conjugates formed by biotin-streptavidin crosslinking were incubated with TNFα activated human umbilical vein endothelial cells (HUVEC) for 1 h at 37° C. The cells were then washed and fixed, cell surface-located carriers were differentially stained with a texas red-conjugated secondary antibody, and the samples were analyzed by fluorescence microscopy to quantify the percent of carriers internalized by the cells. Data are mean±standard error of the mean for n≧4 mice or ≧20 cells. *p<0.05, **p<0.005, ***p<0.001 by student's t test.

The target of the next series is insulin receptor (Homo sapiens, UniProt P06213). As to conditions: reported for other strategies; cited from earlier work.

T2 sequence (P05362 28-532): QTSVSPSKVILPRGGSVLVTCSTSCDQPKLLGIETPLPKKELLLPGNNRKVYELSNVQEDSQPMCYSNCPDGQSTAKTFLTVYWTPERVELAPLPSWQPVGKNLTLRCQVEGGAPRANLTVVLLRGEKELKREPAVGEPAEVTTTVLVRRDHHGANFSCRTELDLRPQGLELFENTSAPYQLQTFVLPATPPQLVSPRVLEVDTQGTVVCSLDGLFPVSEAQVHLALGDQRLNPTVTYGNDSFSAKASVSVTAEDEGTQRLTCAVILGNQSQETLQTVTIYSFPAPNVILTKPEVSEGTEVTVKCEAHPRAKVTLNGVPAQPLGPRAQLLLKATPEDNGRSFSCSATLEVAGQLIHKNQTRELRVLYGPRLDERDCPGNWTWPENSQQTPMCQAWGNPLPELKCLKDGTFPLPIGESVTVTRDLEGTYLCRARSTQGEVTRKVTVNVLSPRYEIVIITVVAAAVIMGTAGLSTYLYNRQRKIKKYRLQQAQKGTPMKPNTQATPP
T1 sequence (P13597 28-214): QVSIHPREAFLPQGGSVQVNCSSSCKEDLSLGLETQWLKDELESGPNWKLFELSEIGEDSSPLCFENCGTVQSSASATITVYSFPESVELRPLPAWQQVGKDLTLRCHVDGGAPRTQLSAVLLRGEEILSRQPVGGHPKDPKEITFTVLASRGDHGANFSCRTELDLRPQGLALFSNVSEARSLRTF
T3 sequence (P13597 28-537): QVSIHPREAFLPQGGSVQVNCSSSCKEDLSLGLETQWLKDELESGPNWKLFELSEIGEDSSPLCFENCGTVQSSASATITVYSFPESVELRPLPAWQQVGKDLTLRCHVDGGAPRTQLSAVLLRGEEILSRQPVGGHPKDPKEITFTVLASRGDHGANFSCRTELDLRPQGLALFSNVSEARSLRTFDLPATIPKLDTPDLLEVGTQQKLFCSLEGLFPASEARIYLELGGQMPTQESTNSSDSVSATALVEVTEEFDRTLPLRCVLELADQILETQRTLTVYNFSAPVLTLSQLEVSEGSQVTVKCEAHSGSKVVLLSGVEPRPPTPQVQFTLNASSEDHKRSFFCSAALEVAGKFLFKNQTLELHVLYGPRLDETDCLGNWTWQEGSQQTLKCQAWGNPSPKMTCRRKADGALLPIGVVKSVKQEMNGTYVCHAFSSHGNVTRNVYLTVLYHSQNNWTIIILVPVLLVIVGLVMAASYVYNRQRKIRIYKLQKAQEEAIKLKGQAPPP

Turning to YPASYQR [A1, YPASYQR], on mouse ICAM-1/hFc [1], the “Affinity to immobilized mouse ICAM-1 over non-selected phages” value is recorded as around 4.7 fold. In addition, the “Specificity vs hFc” value in the series on mouse ICAM-1/hFc [2] is listed as around 5.1 fold. In addition, the “Affinity for human ICAM-1 relative to mouse ICAM-1” value with human ICAM-1 was ~70 % affinity of mouse ICAM-1. For the same molecule, the “Inhibition of binding of anti-ICAM nanocarriers to human endothelial cells” value in series [3] is around 80 % inhibition. Besides, in the series on ICAM-1 on HUVEC, the “Leukocyte transmigration across endothelial cells” value was “inhibit leukocyte transmigration”.

B1: free ASM: recombinant acid sphingomyelinase, an enzyme that binds to mannose-6-phosphate receptor (protein, UniProt P17405 47-631, looked up)
Sphingomyelin …: LALSDSRVLWAPAEAHPLSPQGHPARLHRIVPRLRDVFGWGNLTCPICKGLFTAINLGLKKEPNVARVGSVAIKLCNLLKIAPPAVCQSIVHLFEDDMVEVWRRSVLSPSEACGLLLGSTCGHWDIFSSWNISLPTVPKPPPKPPSPPAPGAPVSRILFLTDLHWDHDYLEGTDPDCADPLCCRRGSGLPPASRPGAGYWGEYSKCDLPLRTLESLLSGLGPAGPFDMVYWTGDIPAHDVWHQTRQDQLRALTTVTALVRKFLGPVPVYPAVGNHESTPVNSFPPPFIEGNHSSRWLYEAMAKAWEPWLPAEALRTLRIGGFYALSPYPGLRLISLNMNFCSRENFWLLINSTDPAGQLQWLVGELQAAEDRGDKVHIIGHIPPGHCLKSWSWNYYRIVARYENTLAAQFFGHTHVDEFEVFYDEETLSRPLAVAFLAPSATTYIGLNPGYRVYQIDGNYSGSSHVVLDHETYILNLTQANIPGAIPHWQLLYRARETYGLPNTLPTAWHNLVYRMRGDMQLFQTFWFLYHKGHPPSEPCGTPCRLATLCAQLSARADSPALCRHLMPDGSLPEAQSLWPRPLFC
As to B1, the “Lung accumulation, fold lower than ICAM-1 targeting” value with ICAM-1 worked out at 10 fold.

B2: α-L-iduronidase: enzyme targeted to insulin receptor, reported brain delivery strategy (protein, UniProt P35475 28-653, looked up)
Alpha-L-iduronidase: APHLVHVDAARALWPLRRFWRSTGFCPPLPHSQADQYVLSWDQQLNLAYVGAVPHRGIKQVRTHWLLELVTTRGSTGRGLSYNFTHLDGYLDLLRENQLLPGFELMGSASGHFTDFEDKQQVFEWKDLVSSLARRYIGRYGLAHVSKWNFETWNEPDHHDFDNVSMTMQGFLNYYDACSEGLRAASPALRLGGPGDSFHTPPRSPLSWGLLRHCHDGTNFFTGEAGVRLDYISLHRKGARSSISILEQEKVVAQQIRQLFPKFADTPIYNDEADPLVGWSLPQPWRADVTYAAMVVKVIAQHQNLLLANTTSAFPYALLSNDNAFLSYHPHPFAQRTLTARFQVNNTRPPHVQLLRKPVLTAMGLLALLDEEQLWAEVSQAGTVLDSNHTVGVLASAHRPQGPADAWRAAVLIYASDDTRAHPNRSVAVTLRLRGVPPGPGLVYVTRYLDNGLCSPDGEWRRLGRPVFPTAEQFRRMRAAEDPVAAAPRPLPAGGRLTLRPALRLPSLLLVHVCARPEKPPGQVTRLRALPLTQGQLVLVWSDEHVGSKCLWTYEIQFSQDGKAYTPVSRKPSTFNLFVFSPDTGAVSGSYRVRALDYWARPGPFSDPVPYLEVPVPRGPPSPGNP
Regarding B2, the “Brain accumulation, targeting to insulin receptor” value with insulin receptor is 0.02 % injected dose per gram (% ID/g).
